Reference: US20240398771A1, “TREATMENT OF SCLERODERMA AND RAYNAUD'S SYNDROME” (Aisa Pharma, Inc., priority 2023, published 2024)

Test system: participants with SSc-RP
Test: Average duration of weekly symptomatic RP attacks (minutes)
Format: in vivo, human
Details: ITT Part A
Source text: The relevant metrics measured by this tool daily are: • Study medication • SSc-RP symptoms (Reporting an attack including duration of attack) • Severity of the attack considering all symptoms of the attack e.g. tingling, numbness, pain, color changes (VAS 0-10 cm scale) • Participant's location at the time of the attack (inside home/outside home) • Selecting symptoms experienced during the attack (tingling, numbness, pain, color changes, other) • Pain rating during the attack (11-point Likert scale) • The RCS based on how much difficulty participants had with Raynaud's today, how many attacks the participant had, and how long they lasted. Participants will also be asked to consider how much pain, numbness, or other symptoms the Raynaud's caused in fingers (including painful sores), and how much the Raynaud's alone affected the use of hands today (VAS 0-10 cm scale).
The absolute change in average duration of weekly RP attacks from baseline to the end of each dosing period was and will be a secondary outcome variable. The sponsor-developed participant-informed diary was and will be used to record data. Average duration of weekly RP attacks is defined as the total duration of RP attacks divided by total number of RP attacks within the last 7 days of each dosing period. Total duration of RP attacks during the last 7 days of screening period divided by the total number of RP attacks will be used as baseline for the analysis of all periods. The variable will be calculated similar to frequency data as before.

[1] = Excluding Outliers, Baseline RCS subgroup 2 (second half of Table B-4, stratum not given), last 7 days of dosing period
[2] = Excluding Outliers, Baseline RCS subgroup 2 (second half of Table B-4, stratum not given), last 7 days of screening period
[3] = Baseline RCS subgroup 2 (Table B-3, stratum not given), last 7 days of dosing period
[4] = Baseline RCS subgroup 2 (Table B-3, stratum not given), last 7 days of screening period

CN1CC(=O)N2[C@H](c3ccc4c(c3)OCO4)c3[nH]c4ccccc4c3C[C@@H]2C1=O [Tadalafil]
Average Duration of weekly symptomatic RP attacks, Max [1]: 6.0, 6.0 minutes
Average Duration of weekly symptomatic RP attacks, Mean [1]: 6.00 min
Average Duration of weekly symptomatic RP attacks, Median [1]: 6.00 min
Average Duration of weekly symptomatic RP attacks, Min [1]: 6.0, 6.0 minutes
Average Duration of weekly symptomatic RP attacks, Q1 [1]: 6.00, 6.00 minutes
Average Duration of weekly symptomatic RP attacks, Q3 [1]: 6.00, 6.00 minutes
Average duration of weekly symptomatic RP attacks, Change from Baseline, Max [1]: −4.6, −4.6 minutes
Average duration of weekly symptomatic RP attacks, Change from Baseline, Mean [1]: -4.58 min
Average duration of weekly symptomatic RP attacks, Change from Baseline, Min [1]: −4.6, −4.6 minutes
Average duration of weekly symptomatic RP attacks, Change from Baseline, Q3 [1]: −4.58, −4.58 minutes
Average duration of weekly symptomatic RP attacks, Percent Change from Baseline, Max [1]: −43.3, −43.3%
Average duration of weekly symptomatic RP attacks, Percent Change from Baseline, Mean [1]: −43.31%
Average duration of weekly symptomatic RP attacks, Percent Change from Baseline, Min [1]: −43.3, −43.3%
Average duration of weekly symptomatic RP attacks, Percent Change from Baseline, Q3 [1]: −43.31, −43.31%
Average duration of weekly symptomatic RP attacks, Baseline, Max [2]: 10.6, 10.6 minutes
Average duration of weekly symptomatic RP attacks, Baseline, Mean [2]: 10.58 min
Average duration of weekly symptomatic RP attacks, Baseline, Median [2]: 10.58 min
Average duration of weekly symptomatic RP attacks, Baseline, Min [2]: 10.6, 10.6 minutes
Average duration of weekly symptomatic RP attacks, Baseline, Q1 [2]: 10.58, 10.58 minutes
Average duration of weekly symptomatic RP attacks, Baseline, Q3 [2]: 10.58, 10.58 minutes
Average Duration of weekly symptomatic RP attacks [3]: 6.0 min
Average Duration of weekly symptomatic RP attacks, Max [3]: 818.6 min
Average Duration of weekly symptomatic RP attacks, Q1 [3]: 6.00 min
Average Duration of weekly symptomatic RP attacks, Q3 [3]: 818.57 min
Average duration of weekly symptomatic RP attacks, Change from Baseline [3]: -4.6 min
Average duration of weekly symptomatic RP attacks, Change from Baseline, Max [3]: 286.1 min
Average duration of weekly symptomatic RP attacks, Change from Baseline, Q1 [3]: -4.58 min
Average duration of weekly symptomatic RP attacks, Change from Baseline, Q3 [3]: 286.07 min
Average duration of weekly symptomatic RP attacks, Percent Change from Baseline, Max [3]: 53.7%
Average duration of weekly symptomatic RP attacks, Percent Change from Baseline, Min [3]: −43.3%
Average duration of weekly symptomatic RP attacks, Percent Change from Baseline, Q1 [3]: −43.31%
Average duration of weekly symptomatic RP attacks, Percent Change from Baseline, Q3 [3]: 53.72%
Average duration of weekly symptomatic RP attacks, Baseline [4]: 10.6 min
Average duration of weekly symptomatic RP attacks, Baseline, Max [4]: 532.5 min
Average duration of weekly symptomatic RP attacks, Baseline, Mean [4]: 271.54 min
Average duration of weekly symptomatic RP attacks, Baseline, Median [4]: 271.54 min
Average duration of weekly symptomatic RP attacks, Baseline, Q1 [4]: 10.58 min
Average duration of weekly symptomatic RP attacks, Baseline, Q3 [4]: 532.50 min
